Measurements published in the supplement of paper PMC10307832.

Key:
Test in all cases: relative viability (nuclei count vs DMSO), 5 days (fraction); higher = more cells survive
[1] = compound: C1=CC=C(C(=C1)C2=CC=C(C=C2)C3=CSC4=C3C(=C(C(=O)N4)C#N)O)O
Outline: (§1)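 Acceptance criteria were a control CV below 25% and at least one doubling per plate. Lung cancer cell lines in 1536-well plates got five library-drug doses (not always all listed) √10 apart by pinning and were left 5 days with no medium change. Viability divides treated-well nuclei by vehicle-well nuclei and is the median across plates. Nuclei were counted by MetaXpress from 4× Hoechst images.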

[2] = compound: CC1=CN2C(=O)C=C(N=C2C(=C1)C(C)NC3=CC=CC=C3)N4CCOCC4 [TGX 221]
Outline: as §1

[3] = compound: O=C(CCCCCCNC(=O)c1cnc(N(c2ccccc2)c2ccccc2)nc1)NO [Ricolinostat]
Outline: as §1

201T
relative viability ([1]; 0.08 µM): 0.945
relative viability ([1]; 0.253 µM): 0.964
relative viability ([1]; 0.8 µM): 0.932
relative viability ([1]; 2.53 µM): 0.94
relative viability ([1]; 8 µM): 1.02
relative viability ([2]; 0.08 µM): 0.911
relative viability ([2]; 0.253 µM): 0.959
relative viability ([2]; 0.8 µM): 0.979
relative viability ([2]; 2.53 µM): 0.865
relative viability ([2]; 8 µM): 0.876
relative viability ([3]; 0.08 µM): 0.876
relative viability ([3]; 0.253 µM): 0.978
relative viability ([3]; 0.8 µM): 1.02
relative viability ([3]; 2.53 µM): 0.93

A549
relative viability ([1]; 0.08 µM): 0.908
relative viability ([1]; 0.253 µM): 1.19
relative viability ([1]; 0.8 µM): 1.02
relative viability ([1]; 2.53 µM): 0.977
relative viability ([1]; 8 µM): 0.675
relative viability ([2]; 0.08 µM): 0.954
relative viability ([2]; 0.253 µM): 0.884
relative viability ([2]; 0.8 µM): 0.953
relative viability ([2]; 2.53 µM): 0.927
relative viability ([2]; 8 µM): 0.867
relative viability ([3]; 0.08 µM): 0.792
relative viability ([3]; 0.253 µM): 0.945
relative viability ([3]; 0.8 µM): 0.926
relative viability ([3]; 2.53 µM): 0.971

A-427
relative viability ([1]; 0.08 µM): 0.913
relative viability ([1]; 0.253 µM): 1.02
relative viability ([1]; 0.8 µM): 1.05
relative viability ([1]; 2.53 µM): 1.04
relative viability ([1]; 8 µM): 1
relative viability ([2]; 0.08 µM): 0.949
relative viability ([2]; 0.253 µM): 0.91
relative viability ([2]; 0.8 µM): 0.971
relative viability ([2]; 2.53 µM): 0.893
relative viability ([2]; 8 µM): 1
relative viability ([3]; 0.08 µM): 0.714
relative viability ([3]; 0.253 µM): 1.01
relative viability ([3]; 0.8 µM): 0.908
relative viability ([3]; 2.53 µM): 0.849

ABC-1
relative viability ([1]; 0.08 µM): 0.854
relative viability ([1]; 0.253 µM): 0.866
relative viability ([1]; 0.8 µM): 1.01
relative viability ([1]; 2.53 µM): 0.874
relative viability ([1]; 8 µM): 0.881
relative viability ([2]; 0.08 µM): 0.827
relative viability ([2]; 0.253 µM): 0.924
relative viability ([2]; 0.8 µM): 0.979
relative viability ([2]; 2.53 µM): 1.02
relative viability ([2]; 8 µM): 0.922
relative viability ([3]; 0.08 µM): 1
relative viability ([3]; 0.253 µM): 0.996
relative viability ([3]; 0.8 µM): 0.846
relative viability ([3]; 2.53 µM): 0.88

BEN
relative viability ([1]; 0.08 µM): 0.883
relative viability ([1]; 0.253 µM): 0.951
relative viability ([1]; 0.8 µM): 0.966
relative viability ([1]; 2.53 µM): 0.999
relative viability ([1]; 8 µM): 0.811
relative viability ([2]; 0.08 µM): 0.914
relative viability ([2]; 0.253 µM): 0.856
relative viability ([2]; 0.8 µM): 0.918
relative viability ([2]; 2.53 µM): 0.899
relative viability ([2]; 8 µM): 0.937
relative viability ([3]; 0.08 µM): 0.743
relative viability ([3]; 0.253 µM): 0.966
relative viability ([3]; 0.8 µM): 0.754
relative viability ([3]; 2.53 µM): 0.694

CAL-12T
relative viability ([1]; 0.08 µM): 0.894
relative viability ([1]; 0.253 µM): 1.24
relative viability ([1]; 0.8 µM): 0.946
relative viability ([1]; 2.53 µM): 0.929
relative viability ([1]; 8 µM): 0.747
relative viability ([2]; 0.08 µM): 0.963
relative viability ([2]; 0.253 µM): 0.936
relative viability ([2]; 0.8 µM): 0.992
relative viability ([2]; 2.53 µM): 0.917
relative viability ([2]; 8 µM): 1.05
relative viability ([3]; 0.08 µM): 0.835
relative viability ([3]; 0.253 µM): 0.953
relative viability ([3]; 0.8 µM): 0.953
relative viability ([3]; 2.53 µM): 1.01

COR-L23
relative viability ([1]; 0.08 µM): 1.13
relative viability ([1]; 0.253 µM): 1.07
relative viability ([1]; 0.8 µM): 1.1
relative viability ([1]; 2.53 µM): 1.13
relative viability ([1]; 8 µM): 0.704
relative viability ([2]; 0.08 µM): 1.01
relative viability ([2]; 0.253 µM): 1
relative viability ([2]; 0.8 µM): 0.97
relative viability ([2]; 2.53 µM): 1.02
relative viability ([2]; 8 µM): 0.989
relative viability ([3]; 0.08 µM): 0.942
relative viability ([3]; 0.253 µM): 0.895
relative viability ([3]; 0.8 µM): 0.844
relative viability ([3]; 2.53 µM): 0.707

COR-L 105
relative viability ([1]; 0.08 µM): 0.851
relative viability ([1]; 0.253 µM): 0.96
relative viability ([1]; 0.8 µM): 0.96
relative viability ([1]; 2.53 µM): 0.708
relative viability ([1]; 8 µM): 0.903
relative viability ([2]; 0.08 µM): 1.01
relative viability ([2]; 0.253 µM): 0.875
relative viability ([2]; 0.8 µM): 0.859
relative viability ([2]; 2.53 µM): 0.944
relative viability ([2]; 8 µM): 0.823
relative viability ([3]; 0.08 µM): 0.775
relative viability ([3]; 0.253 µM): 0.92
relative viability ([3]; 0.8 µM): 0.837
relative viability ([3]; 2.53 µM): 1.09

Calu-6
relative viability ([1]; 0.08 µM): 1.01
relative viability ([1]; 0.253 µM): 1.11
relative viability ([1]; 0.8 µM): 1.02
relative viability ([1]; 2.53 µM): 1.08
relative viability ([1]; 8 µM): 0.899
relative viability ([2]; 0.08 µM): 1.03
relative viability ([2]; 0.253 µM): 0.929
relative viability ([2]; 0.8 µM): 1.02
relative viability ([2]; 2.53 µM): 0.923
relative viability ([2]; 8 µM): 0.957
relative viability ([3]; 0.08 µM): 0.957
relative viability ([3]; 0.253 µM): 0.994
relative viability ([3]; 0.8 µM): 0.981
relative viability ([3]; 2.53 µM): 0.895

ChaGo-K-1
relative viability ([1]; 0.08 µM): 0.785
relative viability ([1]; 0.253 µM): 1.08
relative viability ([1]; 0.8 µM): 1.01
relative viability ([1]; 2.53 µM): 1.01
relative viability ([1]; 8 µM): 0.809
relative viability ([2]; 0.08 µM): 0.904
relative viability ([2]; 0.253 µM): 0.938
relative viability ([2]; 0.8 µM): 0.987
relative viability ([2]; 2.53 µM): 0.958
relative viability ([2]; 8 µM): 1.04
relative viability ([3]; 0.08 µM): 0.936
relative viability ([3]; 0.253 µM): 1
relative viability ([3]; 0.8 µM): 0.921
relative viability ([3]; 2.53 µM): 0.832

EBC-1
relative viability ([1]; 0.08 µM): 1.04
relative viability ([1]; 0.253 µM): 1.14
relative viability ([1]; 0.8 µM): 0.975
relative viability ([1]; 2.53 µM): 1.15
relative viability ([1]; 8 µM): 0.768
relative viability ([2]; 0.08 µM): 0.952
relative viability ([2]; 0.253 µM): 1.03
relative viability ([2]; 0.8 µM): 0.976
relative viability ([2]; 2.53 µM): 0.891
relative viability ([2]; 8 µM): 0.736
relative viability ([3]; 0.08 µM): 0.808
relative viability ([3]; 0.253 µM): 0.886
relative viability ([3]; 0.8 µM): 0.895
relative viability ([3]; 2.53 µM): 0.449

EKVX
relative viability ([1]; 0.08 µM): 0.961
relative viability ([1]; 0.253 µM): 1.13
relative viability ([1]; 0.8 µM): 0.971
relative viability ([1]; 2.53 µM): 0.967
relative viability ([1]; 8 µM): 0.851
relative viability ([2]; 0.08 µM): 0.865
relative viability ([2]; 0.253 µM): 0.888
relative viability ([2]; 0.8 µM): 0.907
relative viability ([2]; 2.53 µM): 0.838
relative viability ([2]; 8 µM): 0.855
relative viability ([3]; 0.08 µM): 0.764
relative viability ([3]; 0.253 µM): 0.918
relative viability ([3]; 0.8 µM): 0.907
relative viability ([3]; 2.53 µM): 0.964
